The values below come from patent publication US5324633A, “Method and apparatus for measuring binding affinity” (Affymax Technologies N.V., priority 1991, dated 1994).

Where two headings read alike, the source gives them in different places. Where no end group is shown, it is not given here.

The test system of experiment [1] is Herz antibody. In words: Binding affinity of fluorescein-labelled receptor to surface-bound peptide, confocal fluorescence intensity at varying receptor concentrations. From the text: At step 104 the array or arrays of polymers are exposed to a receptor at a first solution concentration [R]1. According to some embodiments the receptor is marked with an appropriate label such as a fluorescein tag. Fluorescent tags are preferred because the measurements herein are usually taken with a receptor solution in contact with the immobilized ligands to ensure that the immobilized ligand are in equilibrium with the receptor. […] Confocal microscopy provides one preferred method of distinguishing between surface receptor fluorescence and background fluorescence from bulk solution receptors, due to the limited depth of field of a confocal microscope. Because the microscope cannot completely exclude fluorescence from bulk solution, contributions of the bulk fluorescence can be eliminated by comparing areas of derivatized and underivatized substrates. This method for eliminating background fluorescence may not be accurate at high receptor concentrations, when non-specific receptor binding to underivatized substrates becomes non-negligible.
At step 106 the array of the polymers is exposed to the receptor, for a time sufficient to allow receptor-ligand interaction, preferably to equilibrium conditions, and at step 108 the fluorescence intensity of the receptor at each of the concentrations [R]n is determined for each of the ligands on each array. […]
At step 110 this information is fit to analysis equations or otherwise processed for determination of the binding affinity of the receptor to the various ligands on the substrate and at step 112 the Kd values, among others, are extracted. In a most preferred embodiment the data are used to determine binding affinity by determining the slope of a best fit line through a plot having, on the y-axis, the ratio of fluorescence intensity to receptor concentration and, on the x-axis, the fluorescence intensity. […] To faciltate comparison to other experiments, one can plot normalized fluorescence intensity on the y axis or receptor concentration on the x axis. […]

For experiment [2], the target named is Herz antibody. To be noted: solution, comparison value, cited from earlier work.

Regarding YGGFL, in the experiment with Herz antibody [1] (interpolated between 10^-8 M and 10^-9 M curves, peptide synthesized as free peptide then immobilized on surface), the “binding affinity by interpolating plot of relative fluorescence intensity vs log10 receptor concentration (FIG. 5)” value is on record as “about 1.8×10^-8 M”. For the same substance, the “Kd from slope of best fit line, ratio of fluorescence intensity to receptor concentration vs fluorescence intensity (FIG. 4)” value on Herz antibody [1] (peptide synthesized on substrate, equilibrium over about 24 hours, non-derivatized substrate background subtracted) is 18 nM. In addition, the Kd at Herz antibody [2] (read-out: Kd value from other solution experiments) was 10 nM.
On to YGTFL (not fully specified), for which the Kd at Herz antibody [1] (sequences synthesized on different chips, exposed to Herz antibody, read-out: Kd / binding affinity from isotherms (FIG. 6)) was ~700 nM; on Herz antibody [2] (read-out: binding affinity value from other solution experiments), 500 nM.
